Active and inactive are the calls of the source. The rule behind the calls is not given here.

The subject of experiment [1] is MCF7. As to the kind of experiment: Induction of oxidative stress in human MCF7 cells assessed as cell death by measuring redox alteration fluorescence incubated at 0.097 uM for 72 hrs in presence of dihydro dichlorofluorescein diacetate by DCFH-DA based flow cytometric analysis relative to control. The format is functional. In general terms: In flow cytometry, cells or beads pass a laser one at a time.

The subject of experiment [2] is HepG2. Briefly: Induction of apoptosis in human HepG2 cells assessed as late apoptotic cells incubated at 0.11 uM for 72 hrs by annexin V-FITC based propidium iodide dual staining assay (reference value: 0.66%). The format is functional.
Experiment [3] deals with MCF7. As to the kind of experiment: Induction of DNA damage in human MCF7 cells assessed as reduction of p53 ubiquitination at 5 uM incubated for 24 hrs by Western blot analysis. The format is functional, cell-based. In general terms: A western blot detects proteins with antibodies after separation by electrophoresis.
Experiment [4] relates to HeLa. Briefly: Induction of apoptosis in human HeLa cells assessed as early apoptotic cells by measuring bright green patch incubated at 0.11 uM for 72 hrs by acridine orange-ethidium bromide dual staining based fluorescence microscopic analysis. The format is functional, cell-based.
In the next experiment the test system is Calf thymus DNA. Briefly: Induction of calf thymus DNA damage assessed as disrupted by DNA by measuring decrease in fluorescence intensity at 200 uM by EvaGreen based fluorescence plate reader analysis. It is filed as nucleic-acid assay. The settings on record: Bos taurus.
Experiment [5] deals with Caco-2. As to the kind of experiment: Anticancer activity against human Caco-2 cells assessed as smaller cells incubated at 0.11 uM for 72 hrs by phase contrast inverted microscopic analysis. The format is functional, cell-based.
For experiment [6], the system named is HeLa. Briefly: Induction of oxidative stress in human HeLa cells assessed as cell death by measuring redox alteration fluorescence incubated at 0.098 uM for 72 hrs in presence of dihydro dichlorofluorescein diacetate by DCFH-DA based flow cytometric analysis relative to control. The format is functional.
Experiment [7] concerns MCF7. Briefly: Induction of apoptosis in human MCF7 cells assessed as total apoptotic cells incubated at 0.11 uM for 72 hrs by annexin V-FITC based propidium iodide dual staining assay (reference value: 0.04 %). It is filed as functional.
The subject of experiment [8] is HepG2. Briefly: Induction of apoptosis in human HepG2 cells assessed as pro-oxidant effect by measuring free radical generation measured at 0.11 uM after 72 hrs. The format is functional, cell-based.
In experiment [9] the test system is Caco-2. As to the kind of experiment: Anticancer activity against human Caco-2 cells assessed as cell shrinkage incubated at 0.11 uM for 72 hrs by phase contrast inverted microscopic analysis. The format is functional, cell-based.
For another experiment, the system named is dsDNA. As to the kind of experiment: Induction of damage in dsDNA (unknown origin) assessed as DNA disruption by measuring amplitude at 100 uM incubated for 2.5 hrs by EvaGreen based fluorescence plate reader analysis. It is filed as nucleic-acid assay.
The subject of experiment [10] is Caco-2. As to the kind of experiment: Induction of apoptosis in human Caco-2 cells assessed as viable cells incubated at 0.11 uM for 72 hrs by annexin V-FITC based propidium iodide dual staining assay (reference value: 99.89%). The conditions noted are these: read-out: Activity. The format is functional.
The subject of experiment [11] is MCF7. As to the kind of experiment: Anticancer activity against human MCF7 cells incubated for 24 hrs by MTT assay. The format is functional, cell-based. The conditions noted are these: MCF7, 24 h.
In another experiment the test system is MDA-MB-231. As to the kind of experiment: Anticancer activity against human MDA-MB-231 cells incubated for 24 hrs by MTT assay. It is filed as functional, cell-based. The settings on record: MDA-MB-231, 24 h. For orientation: Tetrazolium assays rely on reduction of a dye to a coloured formazan, in cell work by metabolically active cells.
The subject of experiment [12] is MCF7. As to the kind of experiment: Induction of apoptosis in human MCF7 cells assessed as caspase3/7 activation at 0.017 uM using caspase-glo 3/7 as substrate relative to control. The format is functional.
For experiment [13], the system named is HepG2. Briefly: Induction of apoptosis in human HepG2 cells assessed as viable cells incubated at 0.017 uM for 72 hrs by annexin V-FITC based propidium iodide dual staining assay (reference value: 97.27%). It is filed as functional. The settings on record: read-out: Activity.
Experiment [14] has as its system MCF7. Briefly: Induction of apoptosis in human MCF7 cells assessed as necrotic cells incubated at 0.017 uM for 72 hrs by annexin V-FITC based propidium iodide dual staining assay (reference value: 0.03%). It is filed as functional.
In experiment [15] the test system is HeLa. As to the kind of experiment: Induction of apoptosis in human HeLa cells assessed as viable cells incubated at 0.017 uM for 72 hrs by annexin V-FITC based propidium iodide dual staining assay (reference value: 97.23%). It is filed as functional. The conditions noted are these: read-out: Activity.
Experiment [16] concerns Caco-2. Briefly: Induction of oxidative stress in human Caco-2 cells assessed as cell death by measuring redox alteration fluorescence incubated at 0.097 uM for 72 hrs in presence of dihydro dichlorofluorescein diacetate by DCFH-DA based flow cytometric analysis relative to control. It is filed as functional.
Experiment [17] concerns MCF7. Briefly: Induction of oxidative stress in human MCF7 cells assessed as cell death by measuring redox alteration fluorescence incubated at 0.098 uM for 72 hrs in presence of dihydro dichlorofluorescein diacetate by DCFH-DA based flow cytometric analysis relative to control. The format is functional.
The test system of experiment [18] is Caco-2. Briefly: Induction of oxidative stress in human Caco-2 cells assessed as cell death by measuring redox alteration fluorescence incubated at 0.027 uM for 72 hrs in presence of dihydro dichlorofluorescein diacetate by DCFH-DA based flow cytometric analysis relative to control. It is filed as functional.
Experiment [19] deals with HeLa. Briefly: Anticancer activity against human HeLa cells assessed as cell shrinkage incubated at 0.098uM for 72 hrs by phase contrast inverted microscopic analysis. The format is functional, cell-based.
The test system of experiment [20] is HepG2. As to the kind of experiment: Anticancer activity against human HepG2 cells assessed as absence of normal spindle shape incubated at 0.098uM for 72 hrs by phase contrast inverted microscopic analysis. The format is functional, cell-based.
The test system of experiment [21] is Caco-2. Briefly: Anticancer activity against human Caco-2 cells assessed as smaller cells incubated at 0.098uM for 72 hrs by phase contrast inverted microscopic analysis. It is filed as functional, cell-based.
In experiment [22] the test system is MCF7. Briefly: Anticancer activity against human MCF7 cells assessed as losing contact with neighbouring cells incubated at 0.098uM for 72 hrs by phase contrast inverted microscopic analysis. The format is functional, cell-based.
In experiment [23] the test system is HepG2. Briefly: Induction of apoptosis in human HepG2 cells assessed as viable cells incubated at 0.098 uM for 72 hrs by annexin V-FITC based propidium iodide dual staining assay (reference value: 97.27%). It is filed as functional. The conditions noted are these: read-out: Activity.
Experiment [24] relates to MCF7. Briefly: Induction of oxidative stress in human MCF7 cells assessed as cell death by measuring redox alteration fluorescence incubated at 0.017 uM for 72 hrs in presence of dihydro dichlorofluorescein diacetate by DCFH-DA based flow cytometric analysis relative to control. The format is functional.
In experiment [25] the test system is Caco-2. Briefly: Induction of apoptosis in human Caco-2 cells assessed as necrotic cells incubated at 0.097 uM for 72 hrs by annexin V-FITC based propidium iodide dual staining assay (reference value: 0.02%). It is filed as functional.
Experiment [26] relates to Caco-2. As to the kind of experiment: Induction of apoptosis in human Caco-2 cells assessed as early apoptotic cells by measuring bright green patch incubated at 0.097 uM for 72 hrs by acridine orange-ethidium bromide dual staining based fluorescence microscopic analysis. It is filed as functional, cell-based.
The test system of experiment [27] is Caco-2. As to the kind of experiment: Anticancer activity against human Caco-2 cells assessed as round cells incubated at 0.097uM for 72 hrs by phase contrast inverted microscopic analysis. It is filed as functional, cell-based.
Experiment [28] deals with MCF7. Briefly: Induction of apoptosis in human MCF7 cells assessed as early apoptotic cells incubated at 0.097 uM for 72 hrs by annexin V-FITC based propidium iodide dual staining assay (reference value: 0.06%). The format is functional.
Experiment [29] has as its system MCF7. Briefly: Induction of apoptosis in human MCF7 cells assessed as necrotic cells incubated at 0.097 uM for 72 hrs by annexin V-FITC based propidium iodide dual staining assay (reference value: 0.03%). It is filed as functional.
The subject of experiment [30] is Caco-2. Briefly: Induction of apoptosis in human Caco-2 cells assessed as viable cells incubated at 0.097 uM for 72 hrs by annexin V-FITC based propidium iodide dual staining assay (reference value: 99.89%). The format is functional. The conditions noted are these: read-out: Activity.
The subject of experiment [31] is HeLa. As to the kind of experiment: Anticancer activity against human HeLa cells assessed as losing contact with neighbouring cells incubated at 0.097uM for 72 hrs by phase contrast inverted microscopic analysis. It is filed as functional, cell-based.
Experiment [32] relates to HepG2. Briefly: Induction of apoptosis in human HepG2 cells assessed as early apoptotic cells by measuring bright green patch incubated at 0.097 uM for 72 hrs by acridine orange-ethidium bromide dual staining based fluorescence microscopic analysis. The format is functional, cell-based.

As usually defined, the IC50 is the concentration needed to halve the response being measured. Regarding `C#CCN1C(=O)CN(/N=C/c2ccc([N+](=O)[O-])o2)C1=O`, the Activity amounted to 35.5% in the experiment on MCF7 [1]; 59.49% in the experiment with HepG2 [2]; 30.75% with HeLa [6]; 38.72% in the experiment on MCF7 [7]; 177 in the experiment with dsDNA. Besides, the result in the experiment on MCF7 [3], with HeLa [4], with Calf thymus DNA, in the experiment on Caco-2 [5], in the experiment on HepG2 [8] and in the experiment on Caco-2 [9] was Active. Also, the viability at 0.11 µM with Caco-2 [10] came out at 49.4%. For the same compound, the IC50 is 120 µM in the experiment with MCF7 [11] and 242 µM in the experiment on MDA-MB-231.

Consider `O=c1[nH]cc(F)c(=O)[nH]1` [FLUOROURACIL], for which the Activity is given as 12% in the experiment with MCF7 [12], 0.68% in the experiment on MCF7 [14], 4.78% in the experiment on Caco-2 [16] and 4.24% in the experiment with MCF7 [17]. Moreover, the viability at 0.017 µM was 88.4% with HepG2 [13] and 88.1% with HeLa [15].

On to `O=C(CN1C(=O)CN(/N=C/c2ccc([N+](=O)[O-])o2)C1=O)c1ccc(Cl)cc1`, for which the figures for the Activity in the experiment with Caco-2 [18] and in the experiment on MCF7 [24] were 54.7% and 34.7%, respectively. Besides, the outcome in the experiment on HeLa [19], in the experiment with HepG2 [20], in the experiment on Caco-2 [21] and in the experiment with MCF7 [22] was Active. Also, the viability at 0.098 µM in the experiment on HepG2 [23] is 55%.

In the case of `NS(=O)(=O)c1ccc(-n2cc(CN3C(=O)CN(/N=C/c4ccc([N+](=O)[O-])o4)C3=O)nn2)cc1`, the Activity with Caco-2 [25] is 13.8%; in the experiment with MCF7 [28], 4.85%; with MCF7 [29], 0.6%. Moreover, the result in the experiment on Caco-2 [26], in the experiment on Caco-2 [27], in the experiment on HeLa [31] and in the experiment with HepG2 [32] was Active. Also, the viability at 0.097 µM in the experiment with Caco-2 [30] amounted to 32.8%.

Values taken from ChEMBL document CHEMBL5380816, “Inclusion of Nitrofurantoin into the Realm of Cancer Chemotherapy via Biology-Oriented Synthesis and Drug Repurposing” (J Med Chem, 2023).
